By pEC50 is commonly meant −log10 of the EC50, conventionally taken in molar units.

pEC50: −log10 of the molar value.

The test system of the test is HCV replicon. As to the kind of experiment: HCV replicon replication assay (NPT ELISA) in Huh-7 replicon-containing cells. Format: cell-based. Particulars: Hepatitis C virus, 72 h; HCV replicon in Huh-7 cells, three days incubation; read-out: EC50. The protocol: Compounds claimed herein are tested for the ability to inhibit viral replication of the Hepatitis C replicon in cultured cells in which the HCV replicon construct has been incorporated. The HCV replicon system was described by Bartenschlager, et. al (Science, 285, pp. 110-113 (1999)). The replicon system is predictive of in vivo anti-HCV activity; compounds that are active in humans uniformly evidence activity in the replicon assay.
In this assay HCV replicon containing cells are treated with different concentrations of the test compound to ascertain the ability of the test compound to suppress replication of the HCV replicon. As a positive control, HCV replicon-containing cells are treated with different concentrations of interferon alpha, a known inhibitor of HCV replication. The replicon assay system includes Neomycin Phosphotransferase (NPT) as a component of the replicon itself in order to detect the transcription of replicon gene products in the host cell. Cells in which the HCV replicon is actively replicating have high levels of NPT; the level of NPT is proportional to HCV replication. […] The NPT level of each sample is measured using a captured ELISA.
A protocol for testing compounds for the ability to inhibit viral replication of the Hepatitis C replicon cultured cells in which the replicon construct has been incorporated, follows.
The HCV replicon contains, 5′-3′, the HCV-IRES, the neomycin phosphotransferase (neo) gene, the IRES of encephalomyocarditis virus, which directs translation of HCV sequences NS3 to NS5B, and the 3′-NTR. The sequence of the HCV replicon has been deposited in GenBank (Accession no. AJ242652).
The replicon is transfected into Huh-7 cells using standard methods such as electroporation.
The equipment and materials include, but are not limited to, Huh-7 HCV replicon-containing cells, maintenance media (DMEM (Dulbecco's modified Eagle media) supplemented with 10% FBS, L-glutamine, non-essential amino acids, penicillin (100 units/ml), streptomycin (100 micrograms/ml), and 500 micrograms/ml of Geneticin (G418), screening media (DMEM supplemented with 10% FBS, L-glutamine, non-essential amino acids, penicillin (100 units/ml) and streptomycin (100 micrograms/ml)), 96 well tissue culture plates (flat bottom), 96 well plates (U bottom for drug dilution), Interferon alpha for positive control, fixation reagent (such as methanol: acetone), primary antibody (rabbit anti-NPTII), secondary antibody: Eu-N1 l, and enhancement solution.
HCV replicon-containing cells support high levels of viral RNA replicon replication when their density is suitable. Over-confluency causes decreased viral RNA replication. Therefore, cells must be kept growing in log phase in the presence of 500 micrograms/ml of G418. Generally, cells should be passed twice a week at 1: 4-6 dilution. Cell maintenance is conducted as follows:
HCV replicon-containing cells are examined under a microscope to ensure that cells growing well. Cells are rinsed once with PBS and 2 ml trypsin is added. The cell/trypsin mixture is incubated at 37° C. in a CO2 incubator for 3-5 minutes. After incubation 10 ml of complete media is added to stop the trypsinization reaction. Cells are blown gently, put into a 15 ml tube, and spun at 1200 rpm for 4 minutes. The trypsin/medium solution is removed. Medium (5 ml) is added and the cells are mixed carefully. The cells are counted.
The cells are then seeded onto 96-well plates at a density of 6000-7500 cells/100 microliters/well (6-7.5×10^5 cells/10 ml/plate). The plates are then incubated at 37° C. in a 5% CO2 incubator.
Cells are examined under a microscope approximated 24 hours after seeding and prior to adding drugs. If counting and dilution were performed correctly, cells are 60-70% confluent and nearly all cells should attach and spread evenly in the well.
HCV replicon-containing cells are rinsed with once PBS once; 2 mls of trypsin are then added. Cells are incubated at 37° C. in a 5% CO2 incubator for 3-5 minutes. […]
(In antiviral work, replicon cells carry a viral genome segment that copies itself.)
As for `C=C[C@@H]1C[C@]1(NC(=O)[C@@H]1C[C@@H](Oc2cc(-c3ccccc3)nc3cc(OC)ccc23)CN1C(=O)[C@@H](CC(=O)N1CCCCC1)C(C)(C)C)C(=O)NS(=O)(=O)C1(Cc2ccccc2)CC1` [Compound 147, (2S,4R)-N-((1R,2S)-1-(1-benzylcyclo-propylsulfonyl-carbamoyl)-2-vinyl-cyclopropyl)-1-((S)-2-tert-butyl-4-oxo-4-(piperidin-1-yl)butanoyl)-4-(7-methoxy-2-phenylquinolin-4-yloxy)pyrrolidine-2-carboxamide], the pEC50 was 5.00 to 6.00.

For the compound `C=C[C@@H]1C[C@]1(NC(=O)[C@@H]1C[C@@H](Oc2cc(-c3ccccc3)nc3cc(OC)ccc23)CN1C(=O)[C@@H](CC(=O)N1CCCCC1)CC(C)(C)C)C(=O)NS(=O)(=O)C1CC1` [Compound 104, (2S,4R)-N-((1R,2S)-1-(cyclopropyl-sulfonylcarbamoyl)-2-vinylcyclopropyl)-1-((R)-4,4-dimethyl-2-(2-oxo-2-(piperidin-1-yl)ethyl)pentanoyl)-4-(7-methoxy-2-phenylquinolin-4-yloxy)pyrrolidine-2-carboxamide], the pEC50 was above 6.00.

For the compound `C=C[C@@H]1C[C@]1(NC(=O)[C@@H]1C[C@@H](Oc2cc(-c3ccccc3)nc3cc(OC)ccc23)CN1C(=O)[C@@H](CC(=O)N1C2CCC1CC(=O)C2)C(C)(C)C)C(=O)NS(=O)(=O)C1CC1` [Compound 169, (2S,4R)-1-((2S)-2-tert-butyl-4-oxo-4-(3-oxo-8-aza-bicyclo[3.2.1]octan-8-yl)butanoyl)-N-((1R,2S)-1-(cyclopropyl-sulfonylcarbamoyl)-2-vinylcyclopropyl)-4-(7-methoxy-2-phenylquinolin-4-yloxy)pyrrolidine-2-carboxamide], the pEC50 was above 6.00.

Turning to `C=CC1CC1(NC(=O)[C@@H]1C[C@@H](Oc2cc(-c3ccccc3)nc3cc(OC)ccc23)CN1C(=O)C[C@H](C(=O)NC1CCCC1)C(C)(C)C)C(=O)NS(=O)(=O)C1CC1` (some centres unmarked) [Compound 46], the negative logarithm of the EC50 (pEC50) was above 6.00.

On to `C=C[C@@H]1C[C@]1(NC(=O)[C@@H]1C[C@@H](NC(=O)n2c3ccccc3c3ccccc32)CN1C(=O)[C@@H](CC(=O)N1CC2CCC1C2)C(C)(C)C)C(=O)NS(=O)(=O)C1CC1` (stereo partly drawn) [Compound 198, N-((3R,5S)-1-((2S)-2-(2-(2-aza-bicyclo[2.2.1]heptan-2-yl)-2-oxoethyl)-3,3-dimethylbutanoyl)-5-((1R)-1-(cyclo-propylsulfonyl-carbamoyl)-2-vinylcyclopropyl-carbamoyl)pyrrolidin-3-yl)-9H-carbazole-9-carboxamide], for which the pEC50 was above 6.00.

On to `C=C[C@@H]1C[C@]1(NC(=O)[C@@H]1C[C@@H](OC(=O)N2c3ccccc3C=Cc3ccccc32)CN1C(=O)[C@@H](CC(=O)N1CCCCC1)C(C)(C)C)C(=O)NS(=O)(=O)C1CC1` [Compound 131, (Z)-((3R,5S)-1-((S)-2-tert-butyl-4-oxo-4-(piperidin-1-yl)butanoyl)-5-((1R,2S)-1-(cyclopropylsulfon-ylcarbamoyl)-2-vinylcyclopropyl-carbamoyl)pyr-rolidin-3-yl)5H-dibenzo[b,f]azepine-5-carboxylate], for which the pEC50 was 5.00 to 6.00.

Consider `C=C[C@@H]1C[C@]1(NC(=O)[C@@H]1C[C@@H](Oc2cc(-c3ccccc3)nc3cc(OC)ccc23)CN1C(=O)[C@@H](CC(=O)N1CCCC1C(=O)Nc1nccs1)C(C)(C)C)C(=O)NS(=O)(=O)C1CC1` (stereo partly drawn) [Compound 212, (2S,4R)-1-((S)-2-tert-butyl-4-oxo-4-((S)-2-(thiazol-2-ylcarbamoyl)pyr-rolidin-1-yl)butanoyl)-N-((1R)-1-(cyclo-propylsulfonyl-carbamoyl)-2-vinylcyclopropyl)-4-(7-methoxy-2-phenylquinolin-4-yloxy)pyrrolidine-2-carboxamide], for which the pEC50 is above 6.00.

Turning to `C=C[C@@H]1C[C@]1(NC(=O)[C@@H]1C[C@@H](Oc2cc(-c3csc(N(C)C)n3)nc3cc(OC)ccc23)CN1C(=O)[C@@H](CC(=O)N1CCCCC1)C(C)(C)C)C(=O)NS(=O)(=O)C1CC1` [Compound 137, (2S,4R)-1-((S)-2-tert-butyl-4-oxo-4-(piperidin-1-yl)butanoyl)-N-((1R,2S)-1-(cyclo-propylsulfonyl-carbamoyl)-2-vinylcyclopropyl)-4-(2-(2-(dimethyl-amino)thiazol-4-yl)-7-methoxyquinolin-4-yloxy)pyrrolidine-2-carboxamide], the pEC50 was above 6.00.

As to `C=C[C@@H]1C[C@]1(NC(=O)[C@@H]1C[C@@H](Oc2cc(-c3ccccc3)nc3cc(OC)ccc23)CN1C(=O)[C@@H](CC(=O)N1CCCCC1)C(C)(C)C)C(=O)NS(=O)(=O)C1(C)CC1` [Compound 106, (2S,4R)-1-((S)-2-tert-butyl-4-oxo-4-(piperidin-1-yl)butanoyl)-4-(7-methoxy-2-phenylquinolin-4-yloxy)-N-((1R,2S)-1-(1-methylcyclopropyl-sulfonylcarbamoyl)-2-vinylcyclo-propyl)pyrrolidine-2-carboxamide], the pEC50 was above 6.00.

Turning to `C=C[C@@H]1C[C@]1(NC(=O)[C@@H]1C[C@@H](N(Cc2ccccn2)C(=O)n2c3ccccc3c3ccccc32)CN1C(=O)[C@@H](CC(=O)N1CCCCC1)C(C)(C)C)C(=O)NS(=O)(=O)C1CC1` [Compound 191, N-((3R,5S)-1-((S)-2-tert-butyl-4-oxo-4-(piperidin-1-yl)butanoyl)-5-((1R)-1-(cyclopropylsulfonyl-carbamoyl)-2-vinyl-cyclopropyl-carbamoyl)pyrrolidin-3-yl)-N-(pyridin-2-ylmethyl)-9H-carbazole-9-carboxamide], the pEC50 is above 6.00.

Regarding `C=C[C@@H]1C[C@]1(NC(=O)[C@@H]1C[C@@H](Oc2cc(-c3ccccc3)nc3cc(OC)ccc23)CN1C(=O)[C@@H](CC(=O)N1CCCCC1)C(C)(C)C)C(=O)NS(=O)(=O)c1ccc(Cl)cc1` [Compound 67, (2S,4R)-1-((S)-2-tert-butyl-4-oxo-4-(piperidin-1-yl)butanoyl)-N-((1R,2S)-1-(4-chlorophenyl-sulfonylcarbamoyl)-2-vinylcyclopropyl)-4-(7-methoxy-2-phenylquinolin-4-yloxy)pyrrolidine-2-carboxamide], the pEC50 is above 6.00.

In the case of `C=C[C@@H]1C[C@]1(NC(=O)[C@@H]1C[C@@H](Oc2cc(-c3ccccc3)nc3cc(OC)ccc23)CN1C(=O)[C@@H](CC(=O)N1CC2CC3CC(C2)CC1C3)C(C)(C)C)C(=O)NS(=O)(=O)C1CC1` [Compound 81], the pEC50 is above 6.00.

`C=C[C@@H]1C[C@]1(NC(=O)[C@@H]1C[C@@H](NC(=O)n2c3ccccc3c3ccccc32)CN1C(=O)[C@@H](CC(=O)N1CCC(F)CC1)C(C)(C)C)C(=O)NS(=O)(=O)C1CC1` [Compound 189, N-((3R,5S)-1-((S)-2-tert-butyl-4-(4-fluoropiperidin-1-yl)-4-oxobutanoyl)-5-((1R,2S)-1-(cyclo-propylsulfonyl-carbamoyl)-2-vinylcyclopropyl-carbamoyl)pyrrolidin-3-yl)-9H-carbazole-9-carboxamide]: the pEC50 was above 6.00.

Take `C=C[C@@H]1C[C@]1(NC(=O)[C@@H]1C[C@@H](Oc2cc(-c3ccccc3)nc3c(C)c(OC)ccc23)CN1C(=O)[C@@H](CC(=O)N1CCCC(F)(F)C1)C(C)(C)C)C(=O)NS(=O)(=O)C1CC1` [Compound 241, (2S,4R)-1-((S)-2-tert-butyl-4-(3,3-difluoropiperidin-1-yl)-4-oxobutanoyl)-N-((2S)-1-(cyclopropyl-sulfonylcarbamoyl)-2-vinylcyclopropyl)-4-(7-methoxy-8-methyl-2-phenylquinolin-4-yloxy)pyrrolidine-2-carboxamide]: the pEC50 was above 6.00.

The values are drawn from patent US9133115B2 (ACHILLION PHARMACEUTICALS, INC., priority 2008, dated 2015).
